# Source: PMC10976393 (2024)
# How the values were obtained:
# [1] = test system: Triplet G (DNA, aptamer) CCTGGGGGGGAGTATTGCGGGAGGGAAGG; test: HPLC-ESI-MS; details: 1 mM KCl, 100 mM TEAAc (annealed in 50 mM KCl)
# [2] = test system: ATP Aptamer (DNA, aptamer) CCTGGGGGAGTATTGCGGAGGAAGG; test: ThT fluorescence light-up; details: 100 mM KCl; 50 mM Tris pH 7.5; 3- to 4-fold increase over non-G4 controls
# [3] = test system: Quadruplet G (DNA, aptamer) CCTGGGGGGGGGAGTATTGCGGGGAGGGGAAGG; test: ThT fluorescence light-up; details: 100 mM KCl; 50 mM Tris pH 7.5; 3- to 4-fold increase over non-G4 controls
# [4] = test system: Quadruplet G (DNA, aptamer) CCTGGGGGGGGGAGTATTGCGGGGAGGGGAAGG; test: HPLC-ESI-MS; details: 1 mM KCl, 100 mM TEAAc (annealed in 50 mM KCl)
# [5] = test system: ATP Aptamer (DNA, aptamer) CCTGGGGGAGTATTGCGGAGGAAGG; test: HPLC-ESI-MS; details: 1 mM KCl, 100 mM TEAAc (annealed in 50 mM KCl)
# [6] = test system: Triplet G (DNA, aptamer) CCTGGGGGGGAGTATTGCGGGAGGGAAGG; test: ThT fluorescence light-up; details: 100 mM KCl; 50 mM Tris pH 7.5; 3- to 4-fold increase over non-G4 controls
# [7] = test system: Scrambled Aptamer (DNA, single strand) GTGCGCGAGTGTGAGCGAGAGTGAG; test: label-free ThT fluorescence; details: 100 mM KCl; 50 mM Tris pH 7.5; ThT present; slow annealing with ATP
# [8] = test system: ATP Aptamer (DNA, aptamer) CCTGGGGGAGTATTGCGGAGGAAGG; test: label-free ThT fluorescence increase, single-site fit; details: 100 mM KCl; 50 mM Tris pH 7.5; ThT 0.5 μM present; slow annealing with ATP; apparent
# [9] = test system: Quadruplet G (DNA, aptamer) CCTGGGGGGGGGAGTATTGCGGGGAGGGGAAGG; test: as above; details: 100 mM KCl; 50 mM Tris pH 7.5; ThT 0.5 μM present; slow annealing with ATP; apparent
# [10] = test system: GAT (DNA, single strand) GATAGCGTCACTCGATCT; test: label-free ThT fluorescence; details: 100 mM KCl; 50 mM Tris pH 7.5; ThT present; slow annealing with ATP
# [11] = test system: ATP Aptamer-FAM (DNA, aptamer) TTCCTGGGGGAGTATTGCGGAGGAAGG; test: FAM fluorescence increase, single-site fit; details: 100 mM KCl; 50 mM Tris pH 7.5; slow annealing with ATP 0-10 μM; 0.50 μM aptamer
# [12] = test system: FAM-Quadruplet G (DNA, aptamer) TTCCTGGGGGGGGGAGTATTGCGGGGAGGGGAAGG; test: FAM fluorescence increase, single-site fit; details: 100 mM KCl; 50 mM Tris pH 7.5; slow annealing with ATP 0-10 μM; 0.50 μM aptamer
# [13] = test system: Triplet G (DNA, aptamer) CCTGGGGGGGAGTATTGCGGGAGGGAAGG; test: label-free ThT fluorescence increase, single-site fit; details: 100 mM KCl; 50 mM Tris pH 7.5; ThT 0.5 μM present; slow annealing with ATP; apparent
# [14] = test system: FAM-Triplet G (DNA, aptamer) TTCCTGGGGGGGAGTATTGCGGGAGGGAAGG; test: FAM fluorescence increase, single-site fit; details: 100 mM KCl; 50 mM Tris pH 7.5; slow annealing with ATP 0-10 μM; 0.50 μM aptamer
# [15] = test system: FAM-ATP Aptamer (DNA, aptamer) TTCCTGGGGGAGTATTGCGGAGGAAGG; test: FAM fluorescence increase, single-site fit; details: 100 mM KCl; 50 mM Tris pH 7.5; slow annealing with ATP 0-10 μM; 0.50 μM aptamer
# [16] = G4:ATP:ThT 1:5:5 mixed, ternary complex with ATP
# [17] = 1 mM Tris, G4:ATP 1:5 mixed, also with ThT
SMILES,"binding [1, 16]",binding [2],binding [3],"binding [4, 16]","binding [5, 16]",binding [6],"binding [1, 17]",binding [7],Kd [8],Kd [9],binding [10],Kd [11],"binding [4, 17]",Kd [12],"binding [5, 17]",Kd [13],Kd [14],Kd [15]
Cc1ccc2c(c1)sc(-c1ccc(N(C)C)cc1)[n+]2C,yes,yes,yes,yes,yes,yes,–,–,–,–,–,–,–,–,–,–,–,–
Nc1ncnc2c1ncn2[C@@H]1O[C@H](COP(=O)(O)OP(=O)(O)OP(=O)(O)O)[C@@H](O)[C@H]1O,–,–,–,–,–,–,yes,no,830 nM,170 nM,no,620 nM,yes,42 nM,yes,71 nM,40 nM,150 nM
